Test [1] concerns Cat flea Ctenocephalides felis. Description: Example B1: activity against fleas on dogs in a contaminated environment, oral tablets. The format is in vivo. An excerpt:
Comparison Between the Activity of Lufenuron Alone and the Combination of Nitenpyran and Lufenuron Against Dog Fleas in a Contaminated Environment Corresponding to Actual Conditions.
In the study, conditions existing in the household were simulated. To this end, 4 isolated and clinically clean rooms were used. They contained a sleeping area laid out with straw and a small run to the outside. The rooms were subjected to natural light conditions. […] Subsequently, each group of dogs underwent different treatment.
Control group 1 was given no active ingredient, but only a placebo and served as the reference group. Group 2 was given lufenuron in a monthly dosage in accordance with the instructions on the packet and once a week was given a placebo. Group 3 was given lufenuron in a monthly dosage in accordance with the instructions on the packet, and once a week was additionally given nitenpyram for a period of 6 weeks. Group 4 was given lufenuron in a monthly dosage in accordance with the instructions on the packet, and twice a week was additionally given nitenpyram for a period of 6 weeks.
In all four groups, the flea population was determined by counting them twice weekly before the first treatment and once weekly during treatment.
The activity of the test substances was determined under simulated household conditions in accordance with the following formula: [formula]

In test [2] the test system is fleas. To be noted: in vitro test, cited from earlier work.
Test [3] concerns fleas present on the cats. To be noted: cited from earlier work.

Consider `O=C(NC(=O)c1c(F)cccc1F)Nc1cc(Cl)c(OC(F)(F)C(F)C(F)(F)F)cc1Cl` (racemic) [lufenuron, (R,S)-1-[2,5-dichloro-4-(1,1,2,2,3,3,3-hexafluoropropoxy)-phenyl]-3-(2,6-difluorobenzoyl)urea], for which the “Activity (% relative to control)” value was determined as 25.4% in test [1] (days 0-28 after first treatment, monthly lufenuron only (Group 2)); 78.6% in test [1] (days 29-56, monthly lufenuron only (Group 2)); 72.1% in test [1] (days 57-84, monthly lufenuron only (Group 2)); 94.3% in test [1] (days 85-112, monthly lufenuron only (Group 2)). Besides, the “time until activity achieved a satisfactory level for practical usage” value in test [1] (group 2, treated solely with lufenuron) is listed as “ca. 84 days”.

As for `CCN(Cc1ccc(Cl)nc1)/C(=C/[N+](=O)[O-])NC` [nitenpyram, (E)-N-(6-chloro-pyridin-3-ylmethyl)-N-ethyl-N′-methyl-2-nitrovinylidenediamine], the activity in test [2] (after 24 hours) was 100%. The “time to first, substantial activity” value in test [2] (after feeding contaminated blood to fleas) was 30 min. For the same compound, the “time within which all the fleas except one died” value in test [1] (after the first administration of nitenpyram) was in the range of 16 to 24 days. In test [3] (6 hours after oral administration to cats), the “activity against the fleas present on the cats” value was 60%. Besides, the activity against fleas in test [3] (cats, oral, on the second day after renewed infestation) is given as 55%.

Source of the values: US20020058683A1, “Oral combination of lufenuron and nitenpyram against fleas” (priority 1998, published 2002).
